The record followed here is EP2241555A1, “New RAC1 inhibitors as potential pharmacological agents for heart failure treatment” (UNIVERSITA' DEGLI STUDI DI MILANO, priority 2009, dated 2010).

The structures appear in SMILES notation.

Data set [1] in a line: PAMPA (Parallel Artificial Membrane Permeability Assay). The conditions noted are these: start concentration 250 µM, diffusion period 16 h. It is filed as in vitro ADME. The method, then: (§1) The permeation characteristics of the Rac1 inhibitors were determined first in the artificial system PAMPA (Parallel Artificial Membrane Permeability Assay) which uses a membrane covered with a lipid to simulate the lipid bilayer of various cell types, including intestinal epithelium and second in vitro across Caco2, a human colon carcinoma cell line seeded as monolayers onto polycarbonate membranes. The PAMPA is able to predict the ability of a compound to permeate by a passive transcellular transport through an artificial lipid layer assembled on a membrane and also allows a classification into low (flux <20%), medium (20%≤ flux ≤70%), and high (flux >70%) absorbing substances. The Caco2 assay provides a well-established in vitro model to predict the human intestinal absorption.
The flux rate of the compounds of the invention and the reference NSC23766 was measured from a donor compartment to an acceptor compartment across the lipid layer at a start concentration of 250 µM over a diffusion period of 16 h.

In data set [2] the test system is primary rat cardiomyocytes. Kind of data set: Resazurine cytotoxicity assay (metabolic activity), primary rat cardiomyocytes. It is filed as cell-based. The protocol: (§2) For a pre-screening of the compounds they were first tested in human hepatocellular carcinoma cells (HepG2 cells)for 24 h and to gain further information about the cytotoxic potential more specific target tissues like the mouse cardiomyocytes HL-1 and primary rat cardiomyocytes were used additionally. […] The toxicity classification has been determined by using drugs currently utilized in clinic with known toxicity profile

Another data set relates to HepG2 cells. Kind of data set: Resazurine cytotoxicity assay (metabolic activity), HepG2. The data set is classed as cell-based, human. The method, then: as §2
The next data set concerns Caco2. The data set is described as follows: Caco2 monolayer permeation. The data set is classed as in vitro ADME, human. The conditions noted are these: Caco2 monolayers, 90 min, start concentration 50 µM. The protocol: as §1
Data set [3] is described as follows: Caco2 monolayer permeation. The data set is classed as in vitro ADME, human. As to conditions: human, Caco-2, Caco2 monolayers, start concentration 50 µM. The method, then:
as §1

A further data set deals with HL-1. Kind of data set: Resazurine cytotoxicity assay (metabolic activity), HL-1. It is filed as cell-based, mouse. The method, then:
as §2

A further data set has as its target T1, Rac1 (Homo sapiens, UniProt P63000).
T1 construct: endogenous in cells; host or cells: human cultured smooth muscle cells, stimulated with PDGF-BB
The data set is described as follows: G-LISA assay of intracellular Rac1-GTP in PDGF-BB stimulated human smooth muscle cells. The data set is classed as cell-based. An excerpt: The intracellular amount of Rac1-GTP has been determined using the GLISA™ assay (Cytoskeleton, Inc). The GLISA™ assay uses a 96-well plate coated with RBD domain of Rac1-family effector protein PAK1. […] A significant inhibition on Rac1 activity should decrease the intracellular levels of Rac1-GTP and therefore reduce the percentage of Rac1-GTP detected compared to control untreated cells.

The conditions of data set [4]: tissue homogenate, 60 min, 10 µM.
Protocol: The basic incubation mixture with total volume of 500 µl consisted of the following components. 100 µl liver homogenate, compound in DMSO (dimethyl sulfoxide) and 1 mM NADPH (reduced nicotinamide adenine dinucleotide phosphate), 1 mM UDPGA (uridine 5'-diphosphoglucuronic acid), 1 mM PAPS (3'-phosphoadenosine-5'-phosphosulfate) and 1 mM GSH (glutathione). The substrate concentration used was 10 µM. Two parallel incubations, one with cofactors and one without, were made. Final DMSO concentration in the incubation was 1 µM. […] Reaction was started by addition of a cofactor mixture and stopped by adding 250 µl of ice-cold acetonitrile.

With `c1cc(NCc2ccc3[nH]ccc3c2)nc(NCc2ccc3[nH]ccc3c2)n1` [CWB020/01041, N2,N4-Bis-(1H-indol-5-ylmethyl)-pyrimidine-2,4-diamine], in data set [1], the PAMPA classification result is recorded as “high (high (flux >70%))”. Moreover, the “PAMPA flux [%] ± SD” value in data set [1] is 54±4%. Moreover, the “MVC” value is 3.9 µM in data set [2] (24 h, maximal viability concentration); 7.8 µM in the data set with HepG2 cells (HepG2, 24 h, maximal viability concentration); 15.6 µM with HL-1 (HL-1, 24 h, maximal viability concentration). Further, the Cytotoxicity-Classification result is “++ (10 µM < EC50 ≤ 100 µM, medium (++))” in data set [2] (24 h exposure); “++ (10 µM < EC50 ≤ 100 µM, medium (++))” in the data set on HepG2 cells (HepG2, 24 h exposure); “++ (10 µM < EC50 ≤ 100 µM, medium (++))” in the data set on HL-1 (HL-1, 24 h exposure). Moreover, the EC50 came to 17 µM in data set [2] (Cardiomyocyte, 24 h, metabolic activity); 64 µM in the data set with HepG2 cells (Homo sapiens, HepG2, 24 h, metabolic activity, read-out: EC50); 39 µM in the data set with HL-1 (Mus musculus, HL-1, 24 h, metabolic activity). In addition, in the data set with Caco2, the “Caco2 Classification” value is given as “high (compounds with a Papp >10 are predicted to be well absorbed (70 - 100%))”. Moreover, the Papp at 90 min, 50 µM in data set [3] was 65.9 ± 3.1 ×10⁻⁶ cm/s. At Rac1 (Concentration 50 µm, 4 hours incubation, then PDGF-BB 10 ng/ml, Rac1-GTP detected relative to control (100), lower = more inhibition, read-out: Rac1 inhibitory activity (% vs control)), the remaining activity at 50 µM was 17.1%. For the same molecule, the “inhibitory action on Rac1 activity” value at Rac1 (G-LISA, 50 µM, statement in words) is “significant end efficient inhibitory action”. The “remaining LC/MS peak area (relative to 0 min incubation samples, %)” value in data set [4] is given as 33-41%.
